From patent publication US20240116946A1 (Gilead Sciences, Inc., priority 2022, published 2024)
Read-outs that look alike come from different tables or passages of the source.

What was measured:
[1] = biological target: recombinant SARS-CoV-2 Main protease (Mpro) (Severe acute respiratory syndrome coronavirus 2 (2019-nCoV) (SARS-CoV-2), UniProt P0DTD1); assay: Cov Mpro Biochemical IC50 Assay
[2] = test system: SARS-CoV-2-NLuc; assay: microbe, parasite or virus in culture; assay type: cell-based, SARS Coronavirus 2
[3] = recombinant SARS-CoV-2 Mpro, fluorogenic peptide substrate, read-out: MPro IC50
[4] = Severe acute respiratory syndrome coronavirus, 48 h, read-out: MPro EC50
[5] = recombinant SARS-CoV-2 Mpro 7.5 nM, fluorogenic peptide substrate 40 μM, read-out: MPro IC50
[6] = Severe acute respiratory syndrome coronavirus, 48 h; read-out: MPro EC50

Work on O=c1[nH]c2cc(-c3c(Cl)cccc3OCc3cscn3)ccc2c(=O)n1-c1cncc2ccccc12 [Example 86, 7-[2-chloro-6-(thiazol-4-ylmethoxy)phenyl]-3-(4-isoquinolyl)-1H-quinazoline-2,4-dione] yielded an IC50 [1, 3] of 112 nM and an EC50 ([2]; read-out: MPro EC50) of 144 nM.
Cc1c(-c2ccccc2Cl)sc2[nH]c(=O)n(-c3cncc4ccccc34)c(=O)c12 [Example 75] showed an IC50 [1, 3] of 854 nM and an EC50 [2, 4] of 9390 nM.
COc1cc(-c2cc3c(s2)c(=O)n(-c2cncc4cnn(C)c24)c(=O)n3CC#N)c(Cl)cc1F (single isomer, unassigned) [Example 1012, 2-[6-(2-chloro-4-fluoro-5-methoxy-phenyl)-3-(1-methylpyrazolo[4,3-c]pyridin-7-yl)-2,4-dioxo-thieno[3,2-d]pyrimidin-1-yl]acetonitrile] showed an IC50 [1, 5] of 1.99 nM and an EC50 ([2]; read-out: MPro EC50) of 3.19 nM.
In the case of Cc1c(F)cncc1-n1c(=O)c2sc(-c3ccccc3Cl)cc2n(CCC#N)c1=O [Example 1023], the IC50 [1, 5] is reported as 19.3 nM and the EC50 [2, 6] is reported as 59.3 nM.
O=c1[nH]c2cc(-c3ccccc3Cl)sc2c(=O)n1-c1cncc2cccc(Cl)c12 [Example 600] was tested, and the IC50 [1, 5] was 5.29 nM and the EC50 [2, 4] was 18.1 nM.
O=c1[nH]c2cc(-c3ccccc3Cl)ccc2c(=O)n1-c1cncc2cccnc12 [Example 450] gave an IC50 [1, 5] of 127 nM and an EC50 [2, 4] of 211 nM.
COc1cc(-c2cc3c(s2)c(=O)n(-c2cncc4ccsc24)c(=O)n3CC2(C#N)CC2)c(Cl)cc1F [Example 655] gave an IC50 [1, 5] of 3.4 nM and an EC50 [2, 4] of 3.31 nM.
O=c1[nH]c2cc(-c3ccccc3C(F)(F)F)ccc2c(=O)n1-c1cncc2ccccc12 [Example 24, 3-(isoquinolin-4-yl)-7-(2-(trifluoromethyl)phenyl)quinazoline-2,4(1H,3H)-dione] was tested, and the IC50 [1, 3] was 2730 nM and the EC50 [2, 6] was 2500 nM.
In the case of COc1cc(-c2cc3c(s2)c(=O)n(-c2cncc4nnn(C)c24)c(=O)n3CC2(C#N)CC2)c(Cl)cc1F [Example 688], the IC50 [1, 5] is reported as 9.78 nM and the EC50 [2, 4] is reported as 14.5 nM.
In the case of O=c1[nH]c2cc(-c3ccccc3F)sc2c(=O)n1-c1cncc2ccccc12 [Example 9], the IC50 [1, 3] is reported as 159 nM and the EC50 [2, 4] is reported as 295 nM.
O=c1[nH]c2cc(-c3cc(Cl)c(F)cc3Cl)sc2c(=O)n1-c1cncc2ccccc12 [Example 726] showed an IC50 [1, 5] of 22.8 nM and an EC50 [2, 4] of 39 nM.
Work on COc1cc(-c2cc3[nH]c(=O)n(-c4cncc5ccccc45)c(=O)c3s2)c(Cl)cn1 [Example 365] yielded an IC50 [1, 3] of 100 nM and an EC50 [2, 4] of 343 nM.
COc1ccc(Cl)c(-c2cc3[nH]c(=O)n(-c4cncc(C5CC5)c4)c(=O)c3s2)c1 [Example 367] showed an IC50 [1, 3] of 8.9 nM and an EC50 [2, 6] of 21.1 nM.
With COc1ccc(Cl)c(-c2cc3[nH]c(=O)n(-c4cncc5cn(CC(F)(F)F)nc45)c(=O)c3s2)c1 [Example 502] the IC50 [1, 5] was less than 2.54 nM and the EC50 [2, 4] was 34.8 nM.
COc1ccc(Cl)c(-c2cc3[nH]c(=O)n(-c4cncc5sc(C(C)(C)O)cc45)c(=O)c3s2)c1 [Example 515] was tested, and the IC50 [1, 5] was 8.51 nM and the EC50 [2, 4] was 17.5 nM.
COc1cc(-c2cc3c(s2)c(=O)n(-c2cncc4cccc(F)c24)c(=O)n3CCC#N)c(Cl)cc1F [Example 901, 3-(6-(2-chloro-4-fluoro-5-methoxyphenyl)-3-(5-fluoroisoquinolin-4-yl)-2,4-dioxo-3,4-dihydrothieno[3,2-d]pyrimidin-1(2H)-yl)propanenitrile] showed an IC50 [1, 5] of 2.53 nM and an EC50 [2, 4] of 5.16 nM.
In the case of COc1cc(-c2cc3[nH]c(=O)n(-c4cncc5sc(C#N)c(C)c45)c(=O)c3s2)c(Cl)cc1F [Example 1051], the IC50 [1, 5] is reported as 6.82 nM and the EC50 [2, 4] is reported as 5.16 nM.
COc1cc(-c2cc3[nH]c(=O)n(-c4cncc5[nH]cc(C)c45)c(=O)c3s2)c(Cl)cc1F [Example 767] showed an IC50 [1, 5] of 5.16 nM and an EC50 [2, 4] of 20.2 nM.
Cc1ccncc1-n1c(=O)[nH]c2cc(-c3ccccc3Cl)ccc2c1=O [Example 121, 7-(2-chlorophenyl)-3-(4-methylpyridin-3-yl)quinazoline-2,4(1H,3H)-dione] gave an IC50 [1, 3] of 708 nM and an EC50 [2, 4] of 1150 nM.
With O=c1[nH]c2cc(-c3c(Cl)cccc3-c3ccncc3F)ccc2c(=O)n1-c1cncc2ccccc12 [Example 332] the IC50 [1, 3] was 15.3 nM and the EC50 [2, 4] was 39 nM.
Compound COc1cc(-c2cc3c(s2)c(=O)n(-c2cc(C)cnn2)c(=O)n3CCC#N)c(C#N)cc1F [Example 812] has an IC50 [1, 5] of 8.87 nM and an EC50 [2, 6] of 89 nM.
O=c1[nH]c2cc(-c3ccccc3Cl)sc2c(=O)n1-c1cncc2ccc(N3CC(O)(C(F)(F)F)C3)cc12 [Example 426] was tested, and the IC50 [1, 5] was 21.3 nM and the EC50 [2, 4] was 40.9 nM.
Work on COc1cc(-c2cc3[nH]c(=O)n(-c4cc(C(F)(F)F)cnn4)c(=O)c3s2)c(Cl)cc1F [Example 748] yielded an IC50 [1, 5] of 50.2 nM and an EC50 [2, 6] of 86.5 nM.
Work on O=c1[nH]c2cc(-c3ccccc3OCc3ccccc3Cl)ccc2c(=O)n1-c1cncc2ccccc12 [Example 55] yielded an IC50 [1, 3] of 12800 nM and an EC50 [2, 4] of 1830 nM.
In the case of COc1cc(-c2cc3[nH]c(=O)n(-c4cncc5cnn(C)c45)c(=O)c3cc2F)c(C#N)cc1F [Example 766], the IC50 [1, 5] is reported as 18.9 nM and the EC50 [2, 4] is reported as 102 nM.
O=c1c2sc(-c3ccccc3Cl)cc2n(CC2CCCC2)c(=O)n1-c1cncc2ccccc12 [Example 4] showed an IC50 [1, 3] of 792 nM and an EC50 [2, 4] of 892 nM.
Work on COc1cc(-c2cc3[nH]c(=O)n(-c4cncc5ccccc45)c(=O)c3cc2F)c(Cl)cc1F (single isomer, unassigned) [Example 1007, 7-(2-chloro-4-fluoro-5-methoxy-phenyl)-6-fluoro-3-(4-isoquinolyl)-1H-quinazoline-2,4-dione] yielded an IC50 ([1]; MPro IC50, recombinant SARS-CoV-2 Mpro 7.5 nM, fluorogenic peptide substrate 40 μM) of 331 nM and an EC50 ([2]; read-out: MPro EC50) of 301 nM.
Compound COc1cc(-c2cc3c(s2)c(=O)n(-c2cncc4nc(C)n(C)c24)c(=O)n3CCC#N)c(Cl)cc1F [Example 842, 3-(6-(2-chloro-4-fluoro-5-methoxyphenyl)-3-(1,2-dimethyl-1H-imidazo[4,5-c]pyridin-7-yl)-2,4-dioxo-3,4-dihydrothieno[3,2-d]pyrimidin-1(2H)-yl)propanenitrile] has an IC50 [1, 5] of 6.66 nM and an EC50 [2, 4] of 27.5 nM.
In the case of Cc1cncc(-n2c(=O)c3sc(-c4ccccc4C#N)cc3n(CCC#N)c2=O)c1 [Example 875], the IC50 [1, 5] is reported as 9.81 nM and the EC50 [2, 6] is reported as 32.4 nM.
COc1cc(-c2cc3c(s2)c(=O)n(-c2cnccc2C)c(=O)n3CCC#N)c(Cl)cc1F (single isomer, unassigned) [Example 1030, 3-[6-(2-chloro-4-fluoro-5-methoxy-phenyl)-3-(4-methyl-3-pyridyl)-2,4-dioxo-thieno[3,2-d]pyrimidin-1-yl]propanenitrile] was tested, and the IC50 [1, 5] was 4.5 nM and the EC50 ([2]; read-out: MPro EC50) was 9.72 nM.
With O=c1[nH]c2cc(-c3ccccc3)c(F)cc2c(=O)n1-c1cncc2ccccc12 [Example 38] the IC50 [1, 3] was greater than 100000 nM and the EC50 [2, 6] was 4910 nM.
For Cn1nnc2cncc(-n3c(=O)c4sc(-c5ccc(F)cc5Cl)cc4n(CCC#N)c3=O)c21 (single isomer, unassigned) [Example 1029, 3-[6-(2-chloro-4-fluoro-phenyl)-3-(1-methyltriazolo[4,5-c]pyridin-7-yl)-2,4-dioxo-thieno[3,2-d]pyrimidin-1-yl]propanenitrile], the IC50 [1, 5] was 582 nM and the EC50 ([2]; read-out: MPro EC50) was greater than 1000 nM.
Work on Cn1cnc(Cn2c(=O)n(-c3cncc4ccccc34)c(=O)c3sc(-c4ccccc4Cl)cc32)n1 (single isomer, unassigned) [Example 478, 6-(2-chlorophenyl)-3-(4-isoquinolyl)-1-[(1-methyl-1,2,4-triazol-3-yl)methyl]thieno[3,2-d]pyrimidine-2,4-dione] yielded an IC50 [1, 5] of 4290 nM and an EC50 ([2]; read-out: MPro EC50) of 8280 nM.
With CCn1c(C)nc2cncc(-n3c(=O)c4sc(-c5cc(OC)c(F)cc5Cl)cc4n(CCC#N)c3=O)c21 [Example 940] the IC50 [1, 5] was 5.28 nM and the EC50 [2, 4] was 23.6 nM.
